Laboratory results taken from patent publication US20060035838A1, “Drug therapy for celiac sprue” (The Board of Trustees of the Leland Stanford Junior …, priority 2002, published 2006).
Where two headings read alike, the source gives them in different places. Each block holds one molecule with its values, some of them ahead of it. *1 amine or outer side, *2 acyl side, *3 side chain or, on linkers, in order; H or OH if unused. Where a SMILES comes first, the peptide text is derived from it. [ ]: non-standard residue; d: D form. X1 = O=C([C@@H](N[*:1])[C@@H]1CC(Cl)=NO1)[*:2]; DON = [N-]=[N+]=CC(=O)CC[C@H](N)C(=O)O

Legend:
[1] = target: T1, recombinant human tissue transglutaminase (Homo sapiens, UniProt P21980); test: Inhibition of tissue transglutaminase (residual tTG activity, glutamate dehydrogenase coupled assay); format: biochemical; set-up: made in house
T1 sequence (P21980 1-687): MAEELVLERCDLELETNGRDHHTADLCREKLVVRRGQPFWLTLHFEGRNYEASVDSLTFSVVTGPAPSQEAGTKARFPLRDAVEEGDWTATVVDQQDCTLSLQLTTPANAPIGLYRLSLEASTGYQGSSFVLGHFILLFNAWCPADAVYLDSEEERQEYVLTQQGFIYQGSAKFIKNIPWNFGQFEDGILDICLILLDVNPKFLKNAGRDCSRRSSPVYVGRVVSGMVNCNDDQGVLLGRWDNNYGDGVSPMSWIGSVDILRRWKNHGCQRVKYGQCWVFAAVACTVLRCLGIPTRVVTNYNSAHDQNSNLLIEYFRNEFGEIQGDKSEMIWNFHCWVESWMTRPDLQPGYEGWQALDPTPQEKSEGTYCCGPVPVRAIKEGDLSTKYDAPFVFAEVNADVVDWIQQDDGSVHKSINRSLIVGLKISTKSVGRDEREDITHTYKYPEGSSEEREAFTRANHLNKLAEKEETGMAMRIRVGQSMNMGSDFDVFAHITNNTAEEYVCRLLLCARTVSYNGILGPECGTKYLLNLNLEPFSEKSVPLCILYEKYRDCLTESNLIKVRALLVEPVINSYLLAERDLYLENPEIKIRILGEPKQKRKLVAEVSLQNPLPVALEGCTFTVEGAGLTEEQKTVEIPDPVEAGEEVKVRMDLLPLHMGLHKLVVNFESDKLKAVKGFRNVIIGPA

[2] = target: T1, recombinant human tissue transglutaminase; test: Catalysis of reactive glutamine substrates by tissue transglutaminase; settings: read-out: KM (reactive motif Gln); X = Gln, substrate
[3] = substrate: NCCc1c[nH]cn1; test: purified protein, by the assay type; settings: other: nucleophilic amine co-substrate
[4] = substrate: CC(=O)N1CCC[C@H]1C(=O)N[C@@H](CCC(N)=O)C(=O)N1CCC[C@H]1C(=O)N[C@@H](CCC(N)=O)C(=O)N[C@@H](CC(C)C)C(=O)N1CCC[C@H]1C(=O)N[C@@H](Cc1ccccc1)C(N)=O; test: purified protein, by the assay type; settings: other: X = Gln, substrate; pH 7.1; 30.0 °C
[5] = substrate: CC(C)C[C@H](NC(=O)[C@H](CCC(N)=O)NC(=O)[C@@H]1CCCN1C(=O)[C@H](CCC(N)=O)NC(=O)[C@@H]1CCCN1)C(=O)N1CCC[C@H]1C(=O)N[C@@H](Cc1ccc(O)cc1)C(=O)O; test: purified protein, by the assay type; settings: other: X = Gln, substrate; pH 7.1; 30.0 °C
[6] = Table 3, sulfonamides and sulfonyl hydrazides, competitive inhibition constant, read-out: inhibition constant
[7] = X = acivicin, 200 mM MOPS pH 7.1, 30° C.

Molecule: CC(=O)N1CCC[C@H]1C(=O)N[C@@H](CCC(N)=O)C(=O)N1CCC[C@H]1C(=O)N[C@@H](CCC(=O)C=[N+]=[N-])C(=O)N[C@@H](CC(C)C)C(=O)N1CCC[C@H]1C(=O)N[C@@H](Cc1ccccc1)C(N)=O [Ac—PQP—X—LPF—NH2, X=DON, Ac-Pr-Gl-Pr-DonLeu-Pr-PheNH2] (Ac-PQP[DON]LPF-NH2)
- kinh (reactive motif DON) ([1]; X = 6-diazo-5-oxo-norleucine): 0.2 min⁻¹
- kinh/KI (reactive motif DON) ([1]; X = 6-diazo-5-oxo-norleucine): 2.9 × 10^6 min^−1M^−1

Molecule: [N-]=[N+]=CC(=O)CC[C@H](N)C(=O)O [H—X—OH, X=DON, 6-diazo-5-oxo-norleucine, reference compound]
- kinh (reactive motif DON) ([1]; X = 6-diazo-5-oxo-norleucine): 0.025 min⁻¹
- kinh/KI (reactive motif DON) ([1]; X = 6-diazo-5-oxo-norleucine): 0.2 min^−1M^−1

Molecule: CC(C)C[C@H](NC(=O)[C@@H](NC(=O)[C@@H]1CCCN1C(=O)[C@H](CCC(N)=O)NC(=O)[C@@H]1CCCN1)[C@@H]1CC(Cl)=NO1)C(=O)N1CCC[C@H]1C(=O)N[C@@H](Cc1ccc(O)cc1)C(=O)O [PQP—X—LPY, X=Aci, Pro-Gln-Pro-Aci-Leu-Pro-Tyr] (H-PQP[X1]LPY-OH; C-terminus assumed)
- kinh/KI (reactive motif Aci) ([1]; X = acivicin): 18 min^−1M^−1
- kinh (reactive motif Aci) [1, 7]: 0.014 min⁻¹

Molecule: COC(=O)C(CCC(=O)C=[N+]=[N-])NC(=O)OCc1ccccc1 (centres unmarked) [Cbz-X—OMe, X=DON]
- kinh (reactive motif DON) ([1]; X = 6-diazo-5-oxo-norleucine): 0.12 min⁻¹
- kinh/KI (reactive motif DON) ([1]; X = 6-diazo-5-oxo-norleucine): 890 min^−1M^−1
- Ki ([1]; X = 6-diazo-5-oxo-norleucine, read-out: KI (reactive motif DON)): 0.135 mM

Molecule: N[C@H](C(=O)O)[C@@H]1CC(Cl)=NO1 [H—X—OH, X=Aci, acivicin, reference compound]
- kinh/KI (reactive motif Aci) ([1]; X = acivicin): 0.17 min^−1M^−1
- kinh (reactive motif Aci) [1, 7]: 0.015 min⁻¹
- Ki ([1]; X = acivicin, 200 mM MOPS pH 7.1, 30° C., read-out: KI (reactive motif Aci)): 87 mM

B1: human tTGase (Homo sapiens) (protein)
chain: MAEELVLERCDLELETNGRDHHTADLCREKLVVRRGQPFWLTLHFEGRNYEASVDSLTFSVVTGPAPSQEAGTKARFPLRDAVEEGDWTATVVDQQDCTLSLQLTTPANAPIGLYRLSLEASTGYQGSSFVLGHFILLFNAWCPADAVYLDSEEERQEYVLTQQGFIYQGSAKFIKNIPWNFGQFEDGILDICLILLDVNPKFLKNAGRDCSRRSSPVYVGRVVSGMVNCNDDQGVLLGRWDNNYGDGVSPMSWIGSVDILRRWKNHGCQRVKYGQCWVFAAVACTVLRCLGIPTRVVTNYNSAHDQNSNLLIEYFRNEFGEIQGDKSEMIWNFHCWVESWMTRPDLQPGYEGWQALDPTPQEKSEGTYCCGPVPVRAIKEGDLSTKYDAPFVFAEVNADVVDWIQQDDGSVHKSINRSLIVGLKISTKSVGRDEREDITHTYKYPEGSSEEREAFTRANHLNKLAEKEETGMAMRIRVGQSMNMGSDFDVFAHITNNTAEEYVCRLLLCARTVSYNGILGPECGTKYLLNLNLEPFSEKSVPLCILYEKYRDCLTESNLIKVRALLVEPVINSYLLAERDLYLENPEIKIRILGEPKQKRKLVAEVSLQNPLPVALEGCTFTVEGAGLTEEQKTVEIPDPVEAGEEVKVRMDLLPLHMGLHKLVVNFESDKLKAVKGFRNVIIGPA
- Km [3]: 40 µM
- kcat [3]: 0.333 s⁻¹

B2: recombinant human tissue transglutaminase (Homo sapiens) (protein)
chain: MAEELVLERCDLELETNGRDHHTADLCREKLVVRRGQPFWLTLHFEGRNYEASVDSLTFSVVTGPAPSQEAGTKARFPLRDAVEEGDWTATVVDQQDCTLSLQLTTPANAPIGLYRLSLEASTGYQGSSFVLGHFILLFNAWCPADAVYLDSEEERQEYVLTQQGFIYQGSAKFIKNIPWNFGQFEDGILDICLILLDVNPKFLKNAGRDCSRRSSPVYVGRVVSGMVNCNDDQGVLLGRWDNNYGDGVSPMSWIGSVDILRRWKNHGCQRVKYGQCWVFAAVACTVLRCLGIPTRVVTNYNSAHDQNSNLLIEYFRNEFGEIQGDKSEMIWNFHCWVESWMTRPDLQPGYEGWQALDPTPQEKSEGTYCCGPVPVRAIKEGDLSTKYDAPFVFAEVNADVVDWIQQDDGSVHKSINRSLIVGLKISTKSVGRDEREDITHTYKYPEGSSEEREAFTRANHLNKLAEKEETGMAMRIRVGQSMNMGSDFDVFAHITNNTAEEYVCRLLLCARTVSYNGILGPECGTKYLLNLNLEPFSEKSVPLCILYEKYRDCLTESNLIKVRALLVEPVINSYLLAERDLYLENPEIKIRILGEPKQKRKLVAEVSLQNPLPVALEGCTFTVEGAGLTEEQKTVEIPDPVEAGEEVKVRMDLLPLHMGLHKLVVNFESDKLKAVKGFRNVIIGPA
- Km [4]: 400 µM
- kcat [4]: 0.667 s⁻¹
- kcat/Km [4]: 1620 M⁻¹ s⁻¹
- Km [5]: 300 µM

Other lines, results leading:

- Ki [1, 6]: 2.2 mM
Molecule: CCOC(=O)[C@H](CCS(=O)(=O)NN)NC(=O)OCc1ccccc1 [(S)-2-Benzyloxycarbonylamino-4-hydrazinosulfonyl-butyric acid ethyl ester]

- Ki [1, 6]: 0.13 mM
Molecule: CCOC(=O)[C@H](CCS(=O)(=O)NNc1ccccc1)NC(=O)OCc1ccccc1 [(S)-2-Benzyloxycarbonylamino-4-phenylhydrazinosulfonyl-butyric acid ethyl ester]

- Km [2]: > 30000 µM
Molecule: COC(=O)[C@H](CCC(N)=O)NC(=O)OCc1ccccc1 [Cbz-X—OMe, X=Gln]

- Ki ([1]; Table 2, Sab derivatives, reversible competitive inhibition, read-out: KI): 8 mM
Molecule: NS(=O)(=O)CCC(NC(=O)OCc1ccccc1)C(=O)NCC(=O)O (centres unmarked) [Z-Sab-Gly]

- Ki [1, 6]: 4.4 mM
Molecule: CCOC(=O)[C@H](CCS(N)(=O)=O)NC(=O)OCc1ccccc1 [(S)-2-Benzyloxycarbonylamino-4-sulfamoyl-butyric acid ethyl ester]
